According to US9955689B2, “Method for promoting plant growth” (SUMITOMO CHEMICAL COMPANY, LIMITED, priority 2012, dated 2018):

What follows are molecules tested on Nicotiana benthamiana (assay: Test Example 5: growth promotion under low-temperature stress by hydroponics of Nicotiana benthamiana (1 ppm)). Settings: compound at 1 ppm, 7 days at 1.5±1.0° C. low-temperature stress, then 3 days at 22° C., 5 or greater = growth promotion effect, read-out: value of a relative leaf area (Equation (1), area of green leaf).
Assay type: in vivo
Experimental: Test Example 5. Test for Evaluating Growth Promotion Under Low-Temperature Stress by Hydroponics of Nicotiana benthamiana
(Cultivation and Compound Treatment)
A DMSO solution, which contained one of the compounds 9, 10, 15, 16, 27 to 29, 31 to 37, 40, 44, 47, 48, 52, 55, 56, 58, 61, 63, 81, 87, 89, 92, 95, 98, 100, 102, 105, 108, 109, 111, 113, and 115 of the present invention at a concentration of 1,000 ppm, was prepared. The DMSO solution of the compound of the present invention was added at a volume ratio of 1/1,000 to the Murashige-Scoog medium of a ½-fold concentration (a medium containing 2.3 g of mixed salts (manufactured by Wako Pure Chemical Industries, Ltd.), 200 mg of Myo-inositol (manufactured by Sigme-Aldrich Co. LLC.), 2 mg of niconitic acid (manufactured by Wako Pure Chemical. Industries, Ltd.), 2 mg of pyridoxine hydrochloride (manufactured by Wako Pure Chemical Industries, Ltd.), 20 mg of thiamine hydrochloride (manufactured by Wako Pure Chemical Industries, Ltd.), 20 g of sucrose (manufactured by Wako Pure Chemical Industries, Ltd.), and 1 g of MES (manufactured by DOJINDO LABORATORIES) respectively per 1 L of water and having pH adjusted to 5.8), thereby preparing a medium containing the compound of the present invention at a concentration of 1 ppm.
Seeds of Nicotiana benthamiana were seeded in the 5 μL of the medium and cultured overnight at 22° C. Thereafter, 45 μL of the medium containing the compound of the present invention at a concentration of 1 ppm was added thereto, and the seeds are cultured for 7 days at 22° C. under the conditions of an illuminance of 4,000 lux, and a day length of 16 hours, and the seedlings raised from the Nicotiana benthamiana were treated with the compound. Moreover, instead of the above medium a test plot, which was obtained by performing the same treatment by using a medium prepared by adding DMSO to the Murashige⋅Scoog medium of ½-fold concentration at a volume ratio of 1/1,000, was used as a control plot not treated with the compound.
(Low-Temperature Stress Treatment)
The seedlings of the Nicotiana benthamiana treated with the compound were subjected to low-temperature treatment by being cultured for 7 days at 1.5±1.0° C., under the conditions of an illuminance of 2,000 lux, and a day length of 16 hours.
The seedlings of the Nicotiana benthamiana having undergone the low-temperature stress treatment were cultured for 3 days at 22° C. under the conditions of an illuminance of 4,000 lux, and a day length of 16 hours. Thereafter, the area of green leaf was quantified by Scanalyzer HTS (manufactured by LemnaTec GmbH). Moreover, the value of the control plot not treated with the compound that had not yet been subjected to the low-temperature stress treatment was measured in the same manner. A value of a relative leaf area was calculated based on the following equation (1), and if the relative value of leaf area was 5 or greater, the compound was evaluated to have a growth promotion effect. As a result of the evaluation, it was confirmed that when the plant was treated with one of the compounds 9, 10, 15, 16, 27 to 29, 31 to 37, 40, 44, 47, 48, 52, 55, 56, 58, 61, 63, 81, 87, 89, 92, 95, 98, 100, 102, 105, 108, 109, 111, 113, and 115 of the present invention at 1 ppm, the value of a relative leaf area was 5 or greater, compared to the area of green leaf of the control plot not treated with compound. Accordingly, it was confirmed that the treatment using the compound of the present invention improve a growth promotion effect. Relative leaf area=100*(a green area of a plot treated with the compound of the present invention minus(−) a green area of a plot not treated with the compound of the present invention)/(a green area of a control plot not treated with the compound of the present invention that had not yet been subjected to low-temperature stress treatment minus(−) a green area of a control plot not treated with the compound of the present invention) Equation (1): […]
`O=C(O)c1cc2c(Br)cccc2s1` [Present compound 10, 4-bromobenzo[b]thiophene-2-carboxylic acid] was tested, and the relative leaf area at 1 ppm was ≥ 5%. With `O=C(O)c1cc2cc(I)ccc2s1` [Present compound 15, 5-iodobenzo[b]thiophene-2-carboxylic acid] the relative leaf area at 1 ppm was ≥ 5%. In the case of `N#Cc1ccc2sc(C(=O)O)cc2c1` [Present compound 16, 5-cyanobenzo[b]thiophene-2-carboxylic acid], the relative leaf area at 1 ppm is reported as ≥ 5%. In the case of `Cc1cccc(-c2cccc3cc(C(=O)O)sc23)c1` [Present compound 40, 7-(3-methylphenyl)benzo[b]thiophene-2-carboxylic acid], the relative leaf area at 1 ppm is reported as ≥ 5%. For `O=C(O)c1cc2cc(-c3ccccn3)ccc2s1` [Present compound 44, 5-(2-pyridyl)benzo[b]thiophene-2-carboxylic acid], the relative leaf area at 1 ppm was ≥ 5%. With `O=C(O)c1cc2ccc(-c3ccc(C(F)(F)F)nc3)cc2s1` [Present compound 47, 6-(6-trifluoromethyl-3-pyridyl) benzo[b]thiophene-2-caboxylic acid] the relative leaf area at 1 ppm was ≥ 5%. `O=C(O)c1cc2cc(-c3ncccn3)ccc2s1` [Present compound 48, 5-(2-pyrimidinyl)benzo[b]thiophene-2-carboxylic acid] was tested, and the relative leaf area at 1 ppm was ≥ 5%. `O=C(O)c1cc2c(C(=O)O)cccc2s1` [Present compound 52, benzo[b]thiophene-2,4-dicarboxylic acid] was tested, and the relative leaf area at 1 ppm was ≥ 5%. `CC(=O)c1ccc2sc(C(=O)O)cc2c1` [Present compound 56, 5-acetylbenzo[b]thiophene-2-carboxylic acid] was tested, and the relative leaf area at 1 ppm was ≥ 5%. For `O=C(O)c1cc2cc(C(=O)C(F)(F)F)ccc2s1` [Present compound 58, 5-(trifluoroacetyl)benzo[b]thiophene-2-carboxylic acid], the relative leaf area at 1 ppm was ≥ 5%. For `Nc1ccc2sc(C(=O)O)cc2c1` [Present compound 61, 5-aminobenzo[b]thiophene-2-carboxylic acid], the relative leaf area at 1 ppm was ≥ 5%. In the case of `Nc1c(C(=O)O)sc2ccccc12` [Present compound 63, 3-amino-benzo[b]thiophene-2-carboxylic acid], the relative leaf area at 1 ppm is reported as ≥ 5%. `COc1cccc2sc(C(=O)O)cc12` [Present compound 81, 4-methoxybenzo[b]thiophene-2-carboxylic acid] was tested, and the relative leaf area at 1 ppm was ≥ 5%. In the case of `CC(C)Oc1c(C(=O)O)sc2ccccc12` [Present compound 87, 3-isopropoxybenzo[b]thiophene-2-carboxylic acid], the relative leaf area at 1 ppm is reported as ≥ 5%. For `O=C(O)c1cc2cc(OC(F)(F)F)ccc2s1` [Present compound 89, 5-trifluoromethoxybenzo[b]thiophene-2-carboxylic acid], the relative leaf area at 1 ppm was ≥ 5%. In the case of `COc1cccc(COc2ccc3cc(C(=O)O)sc3c2)c1` [Present compound 92, 6-(3-methoxybenzyloxy)benzo[b]thiophene-2-carboxylic acid], the relative leaf area at 1 ppm is reported as ≥ 5%. For `O=C(O)c1cc2cccc(Oc3ccc(C(F)(F)F)cc3)c2s1` [Present compound 95, 7-(4-trifluoromethylphenoxy)benzo[b]thiophene-2-carboxylic acid], the relative leaf area at 1 ppm was ≥ 5%. With `O=C(O)c1cc2cc(SC(F)(F)F)ccc2s1` [Present compound 98, 5-(trifluoromethylthio)benzo[b]thiophene-2-carboxylic acid] the relative leaf area at 1 ppm was ≥ 5%. In the case of `O=C(O)c1cc2cc(S(=O)(=O)C(F)(F)F)ccc2s1` [Present compound 100, 5-(trifluoromethylsulfonyl)benzo[b]thiophene-2-carboxylic acid], the relative leaf area at 1 ppm is reported as ≥ 5%. In the case of `O=C(O)c1cc2c(Cl)c(Cl)ccc2s1` [Present compound 102, 4,5-dichlorobenzo[b]thiophene-2-carboxylic acid], the relative leaf area at 1 ppm is reported as ≥ 5%. For `O=C(O)c1sc2ccc(C(F)(F)F)cc2c1Cl` [Present compound 105, 3-chloro-5-trifluoromethylbenzo[b]thiophene-2-carboxylic acid], the relative leaf area at 1 ppm was ≥ 5%. In the case of `Nc1c(C(=O)O)sc2ccc(C(F)(F)F)cc12` [Present compound 108, 3-amino-5-trifluoromethylbenzo[b]thiophene-2-carboxylic acid], the relative leaf area at 1 ppm is reported as ≥ 5%. `CNc1c(C(=O)O)sc2ccc(C(F)(F)F)cc12` [Present compound 109, 3-(N-methylamino)-5-trifluoromethylbenzo[b]thiophene-2-carboxylic acid] was tested, and the relative leaf area at 1 ppm was ≥ 5%. With `O=C(O)c1sc2ccc(C(F)(F)F)cc2c1O` [Present compound 111, 3-hydroxy-5-trifluoromethylbenzo[b]thiophene-2-carboxylic acid] the relative leaf area at 1 ppm was ≥ 5%. For `CCOc1c(C(=O)O)sc2ccc(C(F)(F)F)cc12` [Present compound 113, 3-ethoxy-5-trifluoromethylbenzo[b]thiophene-2-carboxylic acid], the relative leaf area at 1 ppm was ≥ 5%. `O=C(O)c1sc2ccc(C(F)(F)F)cc2c1OCc1ccccc1` [Present compound 115, 3-benzyloxy-5-trifluoromethylbenzo[b]thiophene-2-carboxylic acid] was tested, and the relative leaf area at 1 ppm was ≥ 5%.
